Values after ≈ are worked out from the molar mass of the structure shown.

One series concerns Apis mellifera. Particulars: acute; duration: 48 hours; oral; unspecified; mortality.
For the next series, the system named is Bibionidae. Particulars: chronic/long-term; duration: 20 days.
A further series concerns Daphnia magna. Particulars: acute; duration: 48 hours; reproduction.
In another series the test system is Lepomis macrochirus. The following applies: acute; duration: 96 hours; mortality.
A further series has as its system Oncorhynchus mykiss. The following applies: chronic/long-term; duration: 94 days.
The test system of the next series is Oryctolagus sp. Particulars: developmental; development.
In a further series the test system is Pleurozium sp. Particulars: acute; duration: 72 hours; biomass.
Another series deals with Zea sp. Particulars: not reported; other.
The next series relates to Aphidius rhopalosiphi. The series can be described thus: LR50; higher = less toxic. Particulars: not reported; mortality.

As for `CC(Cc1ccc(C(C)(C)C)cc1)CN1C[C@@H](C)O[C@@H](C)C1` (stereo partly drawn) [(2R,6S)-Fenpropimorph], the LD50 with Apis mellifera is greater than 95.6 µg/piece; in the series on Colinus virginianus (acute, oral, mortality), greater than 2000 mg/kg; with Rattus norvegicus (acute, oral, mortality), 2230 mg/kg. The NOEC is 0.13 mg/L with Bibionidae; greater than 30.3 mg/kg-day with Colinus virginianus (reproduction developmental); 0.024 mg/L in the series on Daphnia magna; 0.00016 mg/L in the series on Oncorhynchus mykiss; 0.005 mg/L with Pleurozium sp.; 9.92 mg/kg with Tagia sp. (chronic/long-term). The LC50 in the series on Lepomis macrochirus was 2.3 µg/mL (≈ 7.58 µM); in the series on Tagia sp. (acute, duration: 14 days, mortality), greater than 1000 mg/kg. In addition, the NOAEL is 15 mg/kg-day in the series on Oryctolagus sp.; 0.3 mg/kg-day with Rattus norvegicus (chronic, duration: 2 years, organ weight); 0.7 mg/kg-day in the series on Rattus norvegicus (subchronic, duration: 90 days, oral, clinical chemistry). In addition, the NOAEC in the series on Rattus norvegicus (reproduction developmental, duration: 24 months, reproduction) is 16 mg/kg-day. The LEL with Zea sp. is 1690 g/ha. The molecule further yielded an LR50 with Aphidius rhopalosiphi of 25.7 g/ha.

For the origin of these results see EPA's ToxValDB 9.5 (doi:10.2903/j.efsa.2008.144r).
